Patent US11464767B2, “Prodrugs of phenolic TRPV1 agonists in combination with local anesthetics and vasoconstrictors for improved local anesthesia” (Concentric Analgesics, Inc., priority 2016, dated 2022)

Key:
[1] = tested on: Brennan Model of Post-Incisional Pain in rat; experiment: Brennan Model of Post-Incisional Pain in rat, guarding scores (Example 4); format: in vivo, male Sprague Dawley rats
Experimental: This Example compares the pharmacodynamics of capsaicin from either capsaicin or from Compound 1 (with or without co-administered bupivacaine or ropivacaine) administered via intraplantar infiltration to rats.
Intraplantar infiltration dosing: Five groups of eight male Sprague Dawley rats (vendor was Charles River Laboratories) each were to receive a single subcutaneous dose of one of the following test articles: • Group 1. Compound 1, 162 μg in 0.25% bupivacaine solution (175 μL) • Group 2. Compound 1, 162 μg in 0.25% ropivacaine solution (175 μL) • Group 3. Compound 1, 162 μg in 0.125% ropivacaine solution (175 μL) • Group 4. 0.25% Ropivacaine solution (175 μL) • Group 5. Vehicle control (0.9% Saline; 175 μL)
The injection volume was 175 μL per rat. Vehicle and test articles will be administered by wound intraplantar infiltration (150 μL) immediately prior to incision, and injection into flexor muscle prior to closure (25 μL).
Surgery: Animals were anesthetized with 1.8 to 4% isofluorane (delivered via a nose cone). Study drug ([…]) was infiltrated (by intraplantar injection) immediately prior to incision. A 1 cm long incision of skin, fascia and muscle will be made in the plantar aspect (heel, midfoot or distal pad area) of the right hind paw starting 0.5 cm from the proximal edge of the heel and extending towards the toes. The flexor muscle was elevated and incised longitudinally via blunt dissection with the muscle origin and insertion remaining intact. After hemostasis with gentle pressure, study drug (25 μL) was injected into the flexor muscle prior to closure, and the incision was closed with one or two sutures (5-0 silk/nylon ophthalmic suture on a taper TF needle or equivalent). […]
Guarding Behaviors: The rats were placed in Plexiglas® squares on a stainless steel wire mesh floor thirty minutes before guarding scores are to be measured for acclimation. Guarding scores were measured over 1 hour time periods for the incised paw. The animals were observed closely during a 60 second period every 5 minutes for 1 hour and scored as follows. […]

in vivo = experiment: in vivo; design: species or system male Sprague-Dawley rats; conditions: rat, sc; for Tmax: Tmax of capsaicin
From the text: This Example compares the pharmacokinetics of capsaicin from either capsaicin or from Compound 1 (with or without co-administered bupivacaine or bupivacaine with epinephrine) administered subcutaneously (SC) to rats. Additionally, this example compares the pharmacokinetics of cyclic urea metabolite (Compound 2) from Compound 1 (with or without co-administered bupivacaine or bupivacaine with epinephrine).
SC dosing: Four groups of six male Sprague-Dawley rats (vendor was Charles River Laboratories) each were to receive a single subcutaneous dose (4 mL/kg) of one of the following test articles:
Group 1) 1.00 mg/kg capsaicin in 25% PEG300/sterile water for injection (♦);
Group 2) 1.62 mg/kg Compound 1.HCl in sterile water for injection (□);
Group 3) 1.62 mg/kg Compound 1.HCl in 0.25% bupivacaine hydrochloride for injection (Δ);
Group 4) 1.62 mg/kg Compound 1.HCl in 0.25% bupivacaine hydrochloride plus epinephrine, (1:200,000 for injection) (*).
The dose of capsaicin and Compound 1 were selected to provide approximately equimolar amounts.
The injection volume was 4 mL/kg. (Note: The actual dose of capsaicin for Group 1 was 0.74 mg/kg, or 74% of the intended dose of 1 mg/kg. Dose data represents dose correction of Group 1 to equimolar dosages with Compound 1 from groups 2, 3, 4). The actual doses of Compound 1 HCl and bupivacaine for Groups 2, 3, and 4 were within 10% of the intended doses.
Blood samples (0.3 mL) were collected from the jugular vein into tubes containing K2EDTA as anticoagulant and 0.3 ml of 2% formic acid (resulting in a final concentration of 1% formic acid) as a quenching agent to stop the cyclization of Compound 1, which releases capsaicin and cyclic urea Compound 2. The samples were collected from each rat at 2, 10, and 30 minutes, and 1, 2, 4, 8, and 24 hours post-dose.
Each blood sample was mixed by inversion and placed on dry ice. They were not processed for plasma. The blood samples were kept frozen at −70° C. until further processing and analysis was performed. All blood samples were collected as scheduled.
The concentrations of the two main analytes in rat blood mixed 1:1 (v/v) with 2% formic acid were determined simultaneously using a qualified LC-MS/MS assay. The results for both analytes were reported in ng/mL. The calibration range was 1 to 1,000 ng/mL for Compound 1 and capsaicin in the mixed matrix. The calibration range was 5 to 1,000 ng/mL for Compound 2.
Table 1, FIG. 1, and FIG. 2 provide dose-corrected capsaicin exposure results for rats administered as described above.
Table 2, FIG. 3, and FIG. 4 provide Compound 2 exposure results for rats administered as described above.

[2] = Hydrophilicity/water solubility compared with capsaicin; format: physicochemical; conditions: than capsaicin
[3] = male, Sprague-Dawley, 1.62 mg/kg

CCCN1CCCC[C@H]1C(=O)Nc1c(C)cccc1C [0.25% Ropivacaine, Ropivacaine]
Guarding Score (Mean ± SEM) Day 1 ([1]; Day 1, beginning four hours post surgery, 175 μL intraplantar infiltration, Compound 1 dose 162 μg where present, incised paw, total scores 0-24): 13.5 ± 1.17
mean guarding scores on Day 1 compared to the 0.9% saline group ([1]; Day 1, 175 μL intraplantar infiltration, Compound 1 dose 162 μg where present, p<0.05): no significant changes
Guarding Score (Mean ± SEM) Predose ([1]; Predose baseline, day prior to surgery and dosing, incised paw, total scores 0-24): 1.1 ± 0.30

CN1CC2CCCCN2C1=O (centres unmarked) [Compound 2, 2-methylhexahydroimidazo[1,5-a]pyridin-3(2H)-one]
AUC0-24 of Compound 2, Mean ± SD (in vivo; [3]): 24,180 ± 7,095 ng · min/mL
AUC0-24 of Compound 2, Median (in vivo; [3]): 25,930 ng · min/mL
Cmax of Compound 2, Mean ± SD (in vivo; [3]): 175 ± 48 ng/mL
Cmax of Compound 2, Median (in vivo; [3]): 196 ng/mL
Tmax of Compound 2, Mean ± SD (in vivo; [3]): 36.7 ± 19.7 min
AUC(0-t) (in vivo; male, Sprague-Dawley, 1.62 mg/kg, AUC0-24 of Compound 2, Mean ± SD): 445 ng·h/mL
AUC(0-t) (in vivo; male, Sprague-Dawley, 1.62 mg/kg, AUC0-24 of Compound 2, Median): 450 ng·h/mL
Cmax (in vivo; male, Sprague-Dawley, 1.62 mg/kg, Cmax of Compound 2, Mean ± SD): 226 ± 37 ng/mL
Cmax (in vivo; male, Sprague-Dawley, 1.62 mg/kg, Cmax of Compound 2, Median): 226 ng/mL

COc1cc(CNC(=O)CCCCC=CC(C)C)ccc1O [Capsaicin, 8-methyl-N-vanillyl-6-nonenamide]
Tmax (in vivo; male, Sprague-Dawley, 1 mg/kg, Mean ± SD): 30 min
Tmax (in vivo; male, Sprague-Dawley, 1 mg/kg, Median): 30 min
Tmax of capsaicin, Mean ± SD (in vivo; [3]): 50.0 ± 15.5 min
Tmax of capsaicin, Median (in vivo; [3]): 60 min
Tmax (in vivo; male, Sprague-Dawley, 1.62 mg/kg, Mean ± SD): 26.7 min
Tmax (in vivo; male, Sprague-Dawley, 1.62 mg/kg, Median): 30 min
AUC0-24 of capsaicin, Mean ± SD (in vivo; 1 mg/kg): 5,799 ± 1,759 (ng · min/mL)/(mg/kg)
AUC0-24 of capsaicin, Median (in vivo; 1 mg/kg): 5,193 (ng · min/mL)/(mg/kg)
Cmax of capsaicin, Mean ± SD (in vivo; 1 mg/kg): 110 ± 41 (ng/mL)/(mg/kg)
Cmax of capsaicin, Median (in vivo; 1 mg/kg): 105 (ng/mL)/(mg/kg)

CNCC1CCCCN1C(=O)Oc1ccc(CNC(=O)CCCC/C=C/C(C)C)cc1OC.Cl (centres unmarked) [Compound 1, (E)-2-methoxy-4-((8-methylnon-6-enamido)methyl)phenyl 2-((methylamino)methyl)piperidine-1-carboxylate hydrochloride]
hydrophilicity/water solubility [2]: significantly higher
